Laboratory results from ChEMBL document CHEMBL1201862, “PubChem BioAssay data set” (2004).
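All cell lines were grown in 96-well plates and treated with compound for 48 hours. At the GI50, growth is halved.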 Activity calls are given as the source filed them. Cut-off read from the data, not from the text of the source: active = GI50 up to about 1.1 µM and inactive = higher.

What was measured:
Experiment in all cases: DTP human tumour cell line panel, 48 h
NCI-H23 = system: NCI-H23
OVCAR-3 = system: OVCAR-3
UO-31 = system: UO-31
DLD-1 = system: DLD-1
SK-MEL-28 = system: SK-MEL-28
RXF 393 = system: RXF 393
HT-29 = system: HT-29
RPMI-8226 = system: RPMI-8226
EKVX = system: EKVX
UACC-257 = system: UACC-257
SN12C = system: SN12C
MOLT-4 = system: MOLT-4
SK-OV-3 = system: SK-OV-3
SW-620 = system: SW-620
U-251 = system: U-251
HCT-116 = system: HCT-116
SK-MEL-5 = system: SK-MEL-5

Measured: GI50

CCC1(CC)C(=O)NC(=S)N=C1N
inactive: NCI-H23 > 100 µM | OVCAR-3 > 100 µM | UO-31 > 100 µM | DLD-1 > 100 µM | SK-MEL-28 > 100 µM | RXF 393 > 100 µM | HT-29 > 100 µM | RPMI-8226 > 100 µM | EKVX > 100 µM | UACC-257 > 100 µM | SN12C > 100 µM | MOLT-4 > 100 µM | SK-OV-3 > 100 µM | SW-620 > 100 µM | U-251 > 100 µM | HCT-116 > 100 µM

NC1=NN(c2ccccc2)C(=O)C1C(=O)CCC(=O)Nc1cccc(Cl)c1 (configuration not stated)
inactive: NCI-H23 > 100 µM | OVCAR-3 > 100 µM | UO-31 > 100 µM | DLD-1 > 100 µM | SK-MEL-28 > 100 µM | RXF 393 > 100 µM | HT-29 > 100 µM | EKVX > 100 µM | UACC-257 > 100 µM | SN12C > 100 µM | SK-OV-3 > 100 µM | SW-620 > 100 µM | U-251 > 100 µM | SK-MEL-5 > 100 µM | HCT-116 > 100 µM

N#CC(c1ccccn1)c1nc2ccccc2[nH]1 (configuration not stated)
inactive: NCI-H23 > 100 µM | OVCAR-3 > 100 µM | UO-31 > 100 µM | DLD-1 98.9 µM | SK-MEL-28 > 100 µM | HT-29 > 100 µM | RPMI-8226 54 µM | EKVX > 100 µM | UACC-257 > 100 µM | SN12C > 100 µM | MOLT-4 47.5 µM | SK-OV-3 > 100 µM | SW-620 > 100 µM | U-251 > 100 µM | SK-MEL-5 > 100 µM | HCT-116 98.4 µM

O=c1cc(-c2ccccc2)nc(/C=C(\O)c2ccncc2)n1-c1ccccc1
inactive: NCI-H23 > 100 µM | OVCAR-3 > 100 µM | UO-31 > 100 µM | DLD-1 > 100 µM | SK-MEL-28 > 100 µM | RXF 393 > 100 µM | HT-29 > 100 µM | EKVX > 100 µM | UACC-257 > 100 µM | SN12C > 100 µM | SK-OV-3 > 100 µM | SW-620 > 100 µM | U-251 > 100 µM | SK-MEL-5 > 100 µM | HCT-116 > 100 µM

OCC(O)C(OC1OC(CO)C(O)C(O)C1O)c1nn(-c2ccc(F)cc2)c2nc3cc(Cl)c(Cl)cc3cc12 (configuration not stated)
inactive: NCI-H23 > 100 µM | OVCAR-3 > 100 µM | UO-31 > 100 µM | DLD-1 > 100 µM | SK-MEL-28 > 100 µM | RXF 393 > 100 µM | HT-29 > 100 µM | RPMI-8226 > 100 µM | EKVX > 100 µM | UACC-257 > 100 µM | SN12C > 100 µM | MOLT-4 > 100 µM | SK-OV-3 > 100 µM | U-251 > 100 µM | HCT-116 > 100 µM

O=C(/N=C(\Nc1ccccc1)SCCS/C(=N/C(=O)c1cccs1)Nc1ccccc1)c1cccs1
inactive: NCI-H23 46.2 µM | OVCAR-3 54 µM | UO-31 31.7 µM | DLD-1 40 µM | SK-MEL-28 49.9 µM | RXF 393 22.6 µM | HT-29 33.3 µM | RPMI-8226 36.8 µM | EKVX 92.5 µM | UACC-257 33 µM | SN12C 59.8 µM | MOLT-4 24 µM | SW-620 95.7 µM | U-251 96.6 µM | SK-MEL-5 21.5 µM | HCT-116 49 µM

CCCCCCCCCCCCC(Br)C(C)=O (configuration not stated)
inactive: NCI-H23 > 100 µM | OVCAR-3 > 100 µM | UO-31 > 100 µM | DLD-1 > 100 µM | SK-MEL-28 > 100 µM | RXF 393 > 100 µM | HT-29 > 100 µM | EKVX > 100 µM | UACC-257 > 100 µM | SN12C > 100 µM | SK-OV-3 > 100 µM | SW-620 > 100 µM | U-251 > 100 µM | SK-MEL-5 > 100 µM | HCT-116 > 100 µM

COc1ccc(/C=N/N=C(\N)NO)c(Cl)c1O
inactive: NCI-H23 23.7 µM | OVCAR-3 4.69 µM | UO-31 11.2 µM | DLD-1 25.5 µM | SK-MEL-28 9.57 µM | RXF 393 16.5 µM | RPMI-8226 36 µM | EKVX 10 µM | UACC-257 20.2 µM | SN12C 27.4 µM | MOLT-4 3.43 µM | SK-OV-3 22 µM | SW-620 19.4 µM | U-251 26.8 µM | SK-MEL-5 5.11 µM | HCT-116 15.2 µM

COC1CCC(OS(C)(=O)=O)C(CO)O1 (configuration not stated)
inactive: NCI-H23 > 100 µM | OVCAR-3 > 100 µM | UO-31 > 100 µM | DLD-1 > 100 µM | SK-MEL-28 > 100 µM | RXF 393 > 100 µM | HT-29 > 100 µM | EKVX > 100 µM | UACC-257 > 100 µM | SN12C > 100 µM | MOLT-4 > 100 µM | SK-OV-3 > 100 µM | SW-620 > 100 µM | U-251 > 100 µM | SK-MEL-5 > 10 µM | HCT-116 > 100 µM

O=C(N/C(=C\c1ccc([N+](=O)[O-])cc1)c1nc2cc(Cl)ccc2[nH]1)c1ccccc1
inactive: NCI-H23 18.1 µM | OVCAR-3 21.8 µM | UO-31 13.9 µM | DLD-1 13.5 µM | SK-MEL-28 22.9 µM | RXF 393 21 µM | HT-29 20.3 µM | EKVX 29.4 µM | SN12C 20.7 µM | MOLT-4 10.1 µM | SK-OV-3 39.4 µM | SW-620 19.5 µM | U-251 15.5 µM | SK-MEL-5 17.6 µM

CCNC(=O)COc1ccc(Cl)cc1Cl
inactive: NCI-H23 > 100 µM | OVCAR-3 > 100 µM | UO-31 > 100 µM | DLD-1 > 100 µM | SK-MEL-28 > 100 µM | HT-29 > 100 µM | RPMI-8226 > 100 µM | EKVX 55.7 µM | UACC-257 > 100 µM | SN12C > 100 µM | MOLT-4 > 100 µM | SK-OV-3 > 100 µM | SW-620 > 100 µM | U-251 > 100 µM | SK-MEL-5 > 100 µM | HCT-116 > 100 µM

Cc1ccc(NC(=O)NC23CC4CC(CC(F)(C4)C2)C3)cc1
inactive: NCI-H23 99.3 µM | OVCAR-3 > 100 µM | UO-31 40.1 µM | DLD-1 > 100 µM | SK-MEL-28 > 100 µM | RXF 393 > 100 µM | HT-29 53.6 µM | RPMI-8226 28.3 µM | EKVX 92.3 µM | UACC-257 > 100 µM | MOLT-4 40.6 µM | SK-OV-3 > 100 µM | SW-620 > 100 µM | U-251 > 100 µM | SK-MEL-5 > 100 µM | HCT-116 41.3 µM

CS/C(=N\c1ccccc1Cl)NC(=O)c1ccc(Br)cc1
inactive: NCI-H23 > 100 µM | OVCAR-3 > 100 µM | UO-31 > 100 µM | DLD-1 > 100 µM | SK-MEL-28 25.9 µM | RXF 393 31.3 µM | HT-29 > 100 µM | RPMI-8226 55.5 µM | EKVX > 100 µM | UACC-257 > 100 µM | SN12C > 100 µM | MOLT-4 18.5 µM | SK-OV-3 63 µM | SW-620 > 100 µM | U-251 39.5 µM | HCT-116 > 100 µM
